Experimental data from ChEMBL document CHEMBL4043267, “Synthesis of photocaged 6-O-(2-nitrobenzyl)guanosine and 4-O-(2-nitrobenzyl) uridine triphosphates for photocontrol of the RNA transcription reaction” (Bioorg Med Chem, 2017).
Active and inactive are the calls of the source. No cut-off for these calls is given here.

Tests used:
[1] = target: T7 RNA polymerase (Enterobacteria phage T7) (UniProt P00573); assay: Inhibition of T7 RNA polymerase assessed as RNA product formation at 2 mM using double stranded DNA as substrate after 4 hrs in presence of NTPs by sybrGOLD staining based fluorescence assay (reference value: 100%); design: scale not given: the % may be the effect or the level left; conditions: Escherichia phage T7
Sequence of T7 RNA polymerase (Enterobacteria phage T7) (P00573 whole entry): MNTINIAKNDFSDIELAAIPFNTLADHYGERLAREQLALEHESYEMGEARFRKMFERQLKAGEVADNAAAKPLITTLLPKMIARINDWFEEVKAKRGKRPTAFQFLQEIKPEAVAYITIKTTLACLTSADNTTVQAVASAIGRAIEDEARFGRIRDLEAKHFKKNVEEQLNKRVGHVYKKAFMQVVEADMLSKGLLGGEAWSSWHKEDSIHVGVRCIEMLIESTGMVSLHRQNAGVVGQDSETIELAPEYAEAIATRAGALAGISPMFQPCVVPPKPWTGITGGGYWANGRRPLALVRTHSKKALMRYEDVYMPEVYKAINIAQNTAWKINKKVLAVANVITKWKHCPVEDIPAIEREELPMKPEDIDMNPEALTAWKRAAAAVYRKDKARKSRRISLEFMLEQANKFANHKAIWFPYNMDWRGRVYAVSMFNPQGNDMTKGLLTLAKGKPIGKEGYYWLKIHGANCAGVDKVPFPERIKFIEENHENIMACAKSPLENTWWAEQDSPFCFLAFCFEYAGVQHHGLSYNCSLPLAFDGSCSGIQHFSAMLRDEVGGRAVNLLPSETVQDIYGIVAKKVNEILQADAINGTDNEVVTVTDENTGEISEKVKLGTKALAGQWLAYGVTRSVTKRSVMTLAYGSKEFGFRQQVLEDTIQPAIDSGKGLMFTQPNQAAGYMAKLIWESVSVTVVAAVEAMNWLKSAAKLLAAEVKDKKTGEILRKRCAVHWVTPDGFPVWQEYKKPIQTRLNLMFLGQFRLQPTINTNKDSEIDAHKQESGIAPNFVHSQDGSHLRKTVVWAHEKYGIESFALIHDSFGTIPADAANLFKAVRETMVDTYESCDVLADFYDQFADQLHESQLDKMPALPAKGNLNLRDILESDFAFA

[2] = target: T7 RNA polymerase (Enterobacteria phage T7) (UniProt P00573); assay: (§1) Inhibition of T7 RNA polymerase assessed as reduction in RNA product formation at 2 mM using double stranded DNA as substrate incubated in presence of UV irradiation for 60 secs followed by enzyme addition measured after 4 hrs in presence of NTPs by sybrGOLD staining based fluorescence assay relative to control; design: scale not given: the % may be the effect or the level left; conditions: Escherichia phage T7
[3] = target: T7 RNA polymerase (Enterobacteria phage T7) (UniProt P00573); assay: Inhibition of T7 RNA polymerase assessed as RNA product formation at 0.5 mM using double stranded DNA as substrate after 4 hrs in presence of ATP/UTP/CTP by sybrGOLD staining based fluorescence assay (reference value: 100%); design: scale not given: the % may be the effect or the level left; conditions: Escherichia phage T7
[4] = target: T7 RNA polymerase (Enterobacteria phage T7) (UniProt P00573); assay: Inhibition of T7 RNA polymerase assessed as RNA product formation at 1 mM using double stranded DNA as substrate after 4 hrs in presence of NTPs by sybrGOLD staining based fluorescence assay (reference value: 100%); design: scale not given: the % may be the effect or the level left; conditions: Escherichia phage T7
[5] = target: T7 RNA polymerase (Enterobacteria phage T7) (UniProt P00573); assay: Inhibition of T7 RNA polymerase assessed as RNA product formation at 0.2 mM using double stranded DNA as substrate after 4 hrs in presence of NTPs by sybrGOLD staining based fluorescence assay (reference value: 100%); design: scale not given: the % may be the effect or the level left; conditions: Escherichia phage T7
[6] = target: T7 RNA polymerase (Enterobacteria phage T7) (UniProt P00573); assay: Inhibition of T7 RNA polymerase assessed as RNA product formation at 2 mM using double stranded DNA as substrate incubated in presence of UV irradiation for 1 sec followed by enzyme addition measured after 4 hrs in presence of NTPs by sybrGOLD staining based fluorescence assay relative to control; design: scale not given: the % may be the effect or the level left; conditions: Escherichia phage T7
[7] = target: T7 RNA polymerase (Enterobacteria phage T7) (UniProt P00573); assay: Inhibition of T7 RNA polymerase assessed as RNA product formation at 2 mM using double stranded DNA as substrate incubated in presence of UV irradiation for 10 secs followed by enzyme addition measured after 4 hrs in presence of NTPs by sybrGOLD staining based fluorescence assay relative to controll; design: scale not given: the % may be the effect or the level left; conditions: Escherichia phage T7
[8] = target: T7 RNA polymerase (Enterobacteria phage T7) (UniProt P00573); assay: Inhibition of T7 RNA polymerase assessed as RNA product formation at 10 mM using double stranded DNA as substrate after 4 hrs in presence of NTPs by sybrGOLD staining based fluorescence assay (reference value: 100%); design: scale not given: the % may be the effect or the level left; conditions: Escherichia phage T7
[9] = target: T7 RNA polymerase (Enterobacteria phage T7) (UniProt P00573); assay: Inhibition of T7 RNA polymerase assessed as reduction in RNA product formation at 2 mM using double stranded DNA as substrate incubated in absence of UV irradiation followed by enzyme addition measured after 4 hrs in presence of NTPs by sybrGOLD staining based fluorescence assay relative to control; conditions: Escherichia phage T7
[10] = target: T7 RNA polymerase (Enterobacteria phage T7) (UniProt P00573); assay: Inhibition of T7 RNA polymerase assessed as RNA product formation at 2 mM using double stranded DNA as substrate incubated in presence of UV irradiation for 5 secs followed by enzyme addition measured after 4 hrs in presence of NTPs by sybrGOLD staining based fluorescence assay relative to control; design: scale not given: the % may be the effect or the level left; conditions: Escherichia phage T7
[11] = target: T7 RNA polymerase (Enterobacteria phage T7) (UniProt P00573); assay: (§2) Inhibition of T7 RNA polymerase assessed as reduction in RNA product formation using double stranded DNA as substrate after 4 hrs in presence of NTPs by sybrGOLD staining based fluorescence assay (reference value: 100%); conditions: Escherichia phage T7
T7 RNA polymerase = T7 RNA polymerase (Enterobacteria phage T7, UniProt P00573); assay: as §2; design: species or system Escherichia phage T7
Sequence of T7 RNA polymerase (P00573 whole entry): as above

[12] = target: T7 RNA polymerase (Enterobacteria phage T7) (UniProt P00573); assay: Inhibition of T7 RNA polymerase assessed as RNA product formation at 2 mM using double stranded DNA as substrate incubated in presence of UV irradiation for 20 secs followed by enzyme addition measured after 4 hrs in presence of NTPs by sybrGOLD staining based fluorescence assay relative to control; design: scale not given: the % may be the effect or the level left; conditions: Escherichia phage T7
[13] = target: T7 RNA polymerase (Enterobacteria phage T7) (UniProt P00573); assay: Inhibition of T7 RNA polymerase assessed as RNA product formation at 5 mM using double stranded DNA as substrate after 4 hrs in presence of NTPs by sybrGOLD staining based fluorescence assay (reference value: 100%); design: scale not given: the % may be the effect or the level left; conditions: Escherichia phage T7
[14] = target: T7 RNA polymerase (Enterobacteria phage T7) (UniProt P00573); assay: as §1, with “40” for “60”; design: scale not given: the % may be the effect or the level left; conditions: Escherichia phage T7
[15] = target: T7 RNA polymerase (Enterobacteria phage T7) (UniProt P00573); assay: Inhibition of T7 RNA polymerase assessed as reduction in RNA product formation at 2 mM using double stranded DNA as substrate after 4 hrs in absence of NTPs by sybrGOLD staining based fluorescence assay (reference value: 100%); conditions: Escherichia phage T7

Row | Compound | Activity [1] | Activity [2] | Activity [3] | Activity [4] | Activity [5] | Activity [6] | Activity [7] | Activity [8] | inhibition [9] | Activity [10] | inhibition [11] | IC50 (T7 RNA polymerase) | Activity [12] | Activity [13] | Activity [14] | inhibition [15]
1 | O=c1nc(OCc2ccccc2[N+](=O)[O-])ccn1[C@@H]1O[C@H](COP(=O)(O)OP(=O)(O)OP(=O)(O)O)[C@@H](O)[C@H]1O | 63 to 70% | 60% | 84% | 73% | 94% | 67% | 72% | 8% | Active | 81% | Dose-dependent effect | 5 mM | 70% | 39% | 66% | –
2 | Nc1nc(OCc2ccccc2[N+](=O)[O-])c2ncn([C@@H]3O[C@H](COP(=O)(O)OP(=O)(O)OP(=O)(O)O)[C@@H](O)[C@H]3O)c2n1 | 60 to 64% | 62% | 89% | 87% | 89% | 4% | 53% | 13% | Active | 41% | Dose-dependent effect | 5 mM | 62% | 47% | 64% | Active
